Laboratory results: patent US9006440B2, “Furopyridine derivatives” (Merck Patent GmbH, priority 2010, dated 2015)

Key:
Assay type in all cases: biochemical
Syk = biological target: T1, Syk (Homo sapiens, UniProt P43405); experiment: Syk enzyme assay (SYK flash plate assay / Caliper mobility shift)
T1 construct: purchased BPS Bioscience, CA, USA
Outline: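 Flashplate format: 2.5 nM SYK, 400 nM biotinylated peptide, 10 μM ATP with 33P-ATP, pH 7.5, 1 h at 30 °C; radioactivity read, staurosporine background. Caliper format: 90 min at 25 °C, mobility-shift read of substrate-to-product conversion; IC50 from dose-response curve.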

BTK = biological target: T2, BTK (Homo sapiens, UniProt Q06187); experiment: BTK enzymatic assay (Caliper LifeSciences technology)
T2 construct: purchased Carna Bioscience, Kobe, Japan
Protocol: (§1) The assays described here are performed on the Caliper Life Sciences LC3000 system This technology provides data on enzyme activity via measurement of the relative amounts of phosphorylated or unphosphorylated fluorescently labelled substrate peptide at the end of an enzymatic reaction. These different states of peptide are resolved by applying a potential difference across the sample. The presence of the charged phosphate group on the product (as opposed to the substrate) causes a different peptide mobility between the two peptides. This is visualized by excitation of the fluorescent label on the substrate and product peptides and represented as peaks within the analysis software.
(§2) In order to measure inhibitor activity of kinase inhibitors on this technology, a TTP Mosquito liquid handling instrument is used to place 0.25 ul of the appropriate concentration of inhibitor in 100% DMSO (for a dose response curve calculation) into each well of a 384-well plate. To this reaction components are added to a final volume of 25 ul. The table below indicates the sequences and concentrations for the assays described in this report. Standard components are 1 mM DTT (Sigma, D0632), 1 mM MgCl2 (Sigma, M1028), 100 mM HEPES pH 7.5 (Calbiochem, 391338), 0.015% Brij-35 (Sigma, B4184).
(§3) The reaction is incubated for 90 min at 25 C, and then stopped by the addition of 70 ul of Stop buffer (100 mM HEPES pH 7.5, 0.015% Brij-35, 10 mM EDTA (Sigma, E7889)).
(§4) The plate is read on a Caliper LC 3000 in an Off-Chip mobility shift assay format, on a 12-sipper chip. Unphosphorylated substrate and phosphorylated product peptide resolve as separate peaks allowing direct measurement of percentage of conversion of substrate to product. The percent conversion can be plotted against concentration of inhibitor to produce a sigmoidal dose response curve, from which an IC50 can be calculated using GeneData Condoseo or a similar product.

SRC = biological target: T3, SRC (Homo sapiens, UniProt P12931); experiment: Src enzymatic assay (Caliper LifeSciences technology)
T3 construct: purchased Carna Bioscience, Kobe, Japan
Protocol: as §1, §2, §3, §4

KDR = biological target: T4, KDR (Homo sapiens, UniProt P35968); experiment: KDR enzymatic assay (Caliper LifeSciences technology)
T4 construct: purchased BPS Bioscience, CA, USA
Protocol: as §1, §2, §3, §4

T2 sequence (Q06187 whole entry): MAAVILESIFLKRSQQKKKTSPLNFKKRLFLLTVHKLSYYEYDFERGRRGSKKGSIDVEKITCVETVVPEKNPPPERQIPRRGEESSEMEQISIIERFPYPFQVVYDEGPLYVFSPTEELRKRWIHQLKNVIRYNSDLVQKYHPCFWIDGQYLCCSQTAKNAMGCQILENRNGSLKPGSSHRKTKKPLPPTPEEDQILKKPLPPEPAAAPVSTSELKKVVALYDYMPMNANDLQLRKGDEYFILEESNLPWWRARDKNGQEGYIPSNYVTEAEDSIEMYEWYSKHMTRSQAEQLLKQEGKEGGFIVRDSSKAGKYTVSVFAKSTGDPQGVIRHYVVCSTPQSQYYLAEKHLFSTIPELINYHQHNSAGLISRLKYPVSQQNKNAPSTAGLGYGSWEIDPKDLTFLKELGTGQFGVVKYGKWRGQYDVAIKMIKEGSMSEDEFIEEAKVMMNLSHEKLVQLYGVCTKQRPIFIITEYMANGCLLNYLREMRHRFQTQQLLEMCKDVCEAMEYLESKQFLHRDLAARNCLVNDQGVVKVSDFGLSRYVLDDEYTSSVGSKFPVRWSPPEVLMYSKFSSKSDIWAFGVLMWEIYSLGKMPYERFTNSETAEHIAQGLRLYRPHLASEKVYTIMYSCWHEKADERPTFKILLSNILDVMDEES
T4 sequence (P35968 20-1356): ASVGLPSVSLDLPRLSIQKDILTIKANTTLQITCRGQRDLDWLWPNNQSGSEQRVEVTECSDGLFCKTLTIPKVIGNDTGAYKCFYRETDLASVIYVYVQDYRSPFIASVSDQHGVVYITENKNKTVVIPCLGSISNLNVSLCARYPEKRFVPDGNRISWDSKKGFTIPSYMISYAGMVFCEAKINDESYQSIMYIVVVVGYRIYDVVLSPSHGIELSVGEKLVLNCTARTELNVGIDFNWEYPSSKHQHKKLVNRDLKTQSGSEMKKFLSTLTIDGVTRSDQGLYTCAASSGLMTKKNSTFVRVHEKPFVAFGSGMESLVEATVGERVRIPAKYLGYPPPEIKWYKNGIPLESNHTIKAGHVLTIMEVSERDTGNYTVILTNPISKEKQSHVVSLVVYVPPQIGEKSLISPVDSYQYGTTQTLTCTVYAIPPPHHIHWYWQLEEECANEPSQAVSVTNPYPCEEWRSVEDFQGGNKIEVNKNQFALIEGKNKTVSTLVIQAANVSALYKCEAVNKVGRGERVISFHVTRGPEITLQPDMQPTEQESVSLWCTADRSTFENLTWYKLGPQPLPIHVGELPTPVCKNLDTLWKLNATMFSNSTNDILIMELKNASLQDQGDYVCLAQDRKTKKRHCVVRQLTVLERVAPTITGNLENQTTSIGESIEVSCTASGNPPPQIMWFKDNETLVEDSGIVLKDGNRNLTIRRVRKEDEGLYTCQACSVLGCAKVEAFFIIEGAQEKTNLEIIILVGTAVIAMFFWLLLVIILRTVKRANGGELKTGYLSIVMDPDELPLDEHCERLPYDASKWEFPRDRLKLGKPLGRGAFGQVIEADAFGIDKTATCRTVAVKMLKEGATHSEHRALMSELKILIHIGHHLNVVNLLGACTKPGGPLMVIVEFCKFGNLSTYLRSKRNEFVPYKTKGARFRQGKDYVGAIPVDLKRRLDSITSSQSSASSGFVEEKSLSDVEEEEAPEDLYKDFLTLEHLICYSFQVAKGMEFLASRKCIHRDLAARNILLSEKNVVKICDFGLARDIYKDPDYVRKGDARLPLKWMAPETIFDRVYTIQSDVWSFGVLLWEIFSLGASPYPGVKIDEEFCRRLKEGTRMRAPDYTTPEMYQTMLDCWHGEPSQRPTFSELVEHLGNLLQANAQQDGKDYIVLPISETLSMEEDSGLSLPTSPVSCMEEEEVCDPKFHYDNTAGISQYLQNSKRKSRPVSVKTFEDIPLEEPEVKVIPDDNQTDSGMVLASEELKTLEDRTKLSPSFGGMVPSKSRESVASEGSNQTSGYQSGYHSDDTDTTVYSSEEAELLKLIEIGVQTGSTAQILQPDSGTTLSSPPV
T3 sequence (P12931 whole entry): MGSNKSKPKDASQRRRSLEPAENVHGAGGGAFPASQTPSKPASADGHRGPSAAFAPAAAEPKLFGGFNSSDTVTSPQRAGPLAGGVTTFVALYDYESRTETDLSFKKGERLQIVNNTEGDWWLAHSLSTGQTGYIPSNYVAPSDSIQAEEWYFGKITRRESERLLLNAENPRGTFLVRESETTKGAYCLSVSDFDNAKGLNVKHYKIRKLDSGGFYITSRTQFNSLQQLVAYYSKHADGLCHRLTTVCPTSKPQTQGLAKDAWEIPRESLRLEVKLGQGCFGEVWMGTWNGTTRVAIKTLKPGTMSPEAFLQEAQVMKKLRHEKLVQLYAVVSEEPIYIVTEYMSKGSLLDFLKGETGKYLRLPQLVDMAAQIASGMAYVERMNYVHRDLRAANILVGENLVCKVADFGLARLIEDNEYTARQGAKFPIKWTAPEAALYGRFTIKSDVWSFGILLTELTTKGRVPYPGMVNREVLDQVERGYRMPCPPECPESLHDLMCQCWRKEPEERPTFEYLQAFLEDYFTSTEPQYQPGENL

| Structure (SMILES) | IC50 (Syk) [µM] | IC50 (BTK) [µM] | IC50 (SRC) [µM] | IC50 (KDR) [µM] |
| --- | --- | --- | --- | --- |
| CNC(=O)c1ccccc1Nc1ccnc2cc(-c3cc(OC)c(OC)c(OC)c3)oc12 [Compound B8, N-Methyl-2-[2-(3,4,5-trimethoxy-phenyl)-furo[3,2-b]pyridin-7-ylamino]-benzamide] | 0.3 to 3 | 0.3 to 3 | 0.3 to 3 | – |
| OCc1ccc(-c2cc3nccc(-c4ccc(CO)cc4)c3o2)cc1 [Compound B44, {4-[2-(4-Hydroxymethyl-phenyl)-furo[3,2-b]pyridin-7-yl]-phenyl}-methanol] | 0.3 to 3 | 3 to 50 | – | < 0.3 |
| Cc1c(Nc2ccnc3cc(-c4ccc(OCCCN(C)C)cc4)oc23)ccc2[nH]ccc12 [Compound B58, {2-[4-(3-Dimethylamino-propoxy)-phenyl]-furo[3,2-b]pyridin-7-yl}-(4-methyl-1H-indo-5-yl)-amine] | 0.3 to 3 | – | < 0.3 | < 0.3 |
| COc1cccc(-c2cc3nccc(Nc4ccc5[nH]ccc5c4C)c3o2)c1OC [Compound B59, [2-(2,3-Dimethoxy-phenyl)-furo[3,2-b]pyridin-7-yl]-(4-methyl-1H-indol-5-yl)-amine] | 0.3 to 3 | – | < 0.3 | < 0.3 |
| Cc1c(Nc2ccnc3cc(-c4ccc5c(c4)OCCO5)oc23)ccc2[nH]ccc12 [Compound B60, [2-(2,3-Dihydro-benzo[1,4]dioxin-6-yl)-furo[3,2-b]pyridin-7-yl]-(4-methyl-1H-indol-5-yl)-amine] | 0.3 to 3 | – | < 0.3 | 0.3 to 3 |
| Cc1noc(C)c1-c1cc2nccc(Nc3ccc4[nH]ccc4c3C)c2o1 [Compound B63, [2-(3,5-Dimethyl-isoxazol-4-yl)-furo[3,2-b]pyridin-7-yl]-(4-methyl-1H-indol-5-yl)-amine] | 0.3 to 3 | – | < 0.3 | < 0.3 |
| Nc1cccc(-c2cc3nccc(Oc4ccc(Oc5ccccc5)cc4)c3o2)c1 [Compound B79, 3-[7-(4-Phenoxyphenoxy)furo[3,2-b]pyridin-2-yl]aniline] | 3 to 50 | 0.3 to 3 | – | – |
| COc1ccc(-c2cc3nccc(-c4ccccc4)c3o2)cc1NC(=O)[C@@H]1C[C@@H](O)CN1 [Compound C40] | 0.3 to 3 | – | 3 to 50 | 0.3 to 3 |
| COc1cc(-c2cc3nccc(-c4cnc5c(c4)CCCO5)c3o2)cc(OC)c1OC [Compound C113] | < 0.3 | – | 0.3 to 3 | 0.3 to 3 |
| Cn1cc(-c2ccnc3cc(-c4ccc5nc[nH]c5c4)oc23)cn1 [Compound C123] | < 0.3 | 3 to 50 | – | 0.3 to 3 |
| COc1cc(-c2cc3nccc(-c4c[nH]nc4C)c3o2)cc(OC)c1OC [Compound C127] | < 0.3 | – | 0.3 to 3 | 0.3 to 3 |
| COc1ccc(O)cc1-c1ccnc2cc(-c3cc(OC)c(OC)c(OC)c3)oc12 [Compound C136] | < 0.3 | – | 0.3 to 3 | 0.3 to 3 |
| COc1cc(-c2cc3nccc(-c4cc(OC(C)C)cc(C(=O)O)c4)c3o2)cc(OC)c1OC [Compound C155] | < 0.3 | – | 0.3 to 3 | 0.3 to 3 |
| COc1cc(-c2cc3nccc(-c4cc(OC(F)(F)F)cc(C(=O)O)c4)c3o2)cc(OC)c1OC [Compound C163] | < 0.3 | – | 0.3 to 3 | 0.3 to 3 |
| COc1ccc(OC)c(-c2cc3nccc(-c4cccc(C(=O)N[C@@H]5CCCC[C@@H]5N)c4)c3o2)c1 [Compound C178] | < 0.3 | – | < 0.3 | 0.3 to 3 |
| C=CC(=O)NCc1cccc(-c2cc3nccc(Oc4ccc(Oc5ccccc5)cc4)c3o2)c1 [Compound D4, N-{3-[7-(4-Phenoxy-phenoxy)-furo[3,2-b]pyridin-2-yl]-benzyl}-acrylamide] | – | < 0.3 | – | – |
| CCC(=O)Nc1cccc(-c2cc3nccc(Oc4ccccc4)c3o2)c1 [Compound D8, N-[3-(7-Phenoxy-furo[3,2-b]pyridin-2-yl)-phenyl]-propionamide] | – | 3 to 50 | – | – |

| Structure (SMILES) | IC50 (Syk) [µM] | IC50 (BTK) [µM] | IC50 (SRC) [µM] | IC50 (KDR) [µM] |
| --- | --- | --- | --- | --- |
| C=CC(=O)Nc1cccc(-c2cc3nccc(Oc4cccc(Cl)c4)c3o2)c1 [Compound D9, N-{3-[7-(3-Chloro-phenoxy)-furo[3,2-b]pyridin-2-yl]-phenyl}-acrylamide] | – | 3 to 50 | – | – |
| C=CC(=O)Nc1cccc(-c2cc3nccc(Oc4ccc5ncccc5c4)c3o2)c1 [Compound D10, N-{3-[7-(Quinolin-6-yloxy)-furo[3,2-b]pyridin-2-yl]-phenyl}-acrylamide] | – | 3 to 50 | – | – |
| C=CC(=O)Nc1cccc(-c2cc3nccc(Oc4ccc(Cl)cc4)c3o2)c1 [Compound D11, N-{3-[7-(4-Chloro-phenoxy)-furo[3,2-b]pyridin-2-yl]-phenyl}-acrylamide] | – | 0.3 to 3 | – | – |
| CCC(=O)Nc1cccc(-c2cc3nccc(-c4ccccc4)c3o2)c1 [Compound D14, N-[3-(7-Phenyl-furo[3,2-b]pyridin-2-yl)-phenyl]-propionamide] | – | 3 to 50 | – | – |
| C=CC(=O)NCc1cccc(-c2cc3nccc(-c4ccccc4)c3o2)c1 [Compound D15, N-[3-(7-Phenyl-furo[3,2-b]pyridin-2-yl)-benzyl]-acrylamide] | – | 0.3 to 3 | – | – |
| O=C(CCl)NCc1cccc(-c2cc3nccc(-c4ccccc4)c3o2)c1 [Compound D16, 2-Chloro-N-[3-(7-phenyl-furo[3,2-b]pyridin-2-yl)-benzyl]-acetamide] | – | 0.3 to 3 | – | – |
| C=CC(=O)Nc1cccc(Oc2ccnc3cc(-c4ccccc4)oc23)c1 [Compound D19, N-[3-(2-Phenyl-furo[3,2-b]pyridin-7-yloxy)-phenyl]-acrylamide] | – | 0.3 to 3 | – | – |
| O=C(CCl)Nc1cccc(Oc2ccnc3cc(-c4ccccc4)oc23)c1 [Compound D20, 2-Chloro-N-[3-(2-phenyl-furo[3,2-b]pyridin-7-yloxy)-phenyl]-acetamide] | – | < 0.3 | – | – |
| CCC(=O)Nc1cccc(Oc2ccnc3cc(-c4ccccc4)oc23)c1 [Compound D21, N-[3-(2-Phenyl-furo[3,2-b]pyridin-7-yloxy)-phenyl]-propionamide] | – | 3 to 50 | – | – |
| C=CC(=O)Nc1ccc(Oc2ccnc3cc(-c4ccccc4)oc23)cc1 [Compound D22, N-[4-(2-Phenyl-furo[3,2-b]pyridin-7-yloxy)-phenyl]-acrylamide] | – | 0.3 to 3 | – | – |
| O=C(CCl)Nc1ccc(Oc2ccnc3cc(-c4ccccc4)oc23)cc1 [Compound D23, 2-Chloro-N-[4-(2-phenyl-furo[3,2-b]pyridin-7-yloxy)-phenyl]-acetamide] | – | < 0.3 | – | – |
| CCC(=O)Nc1ccc(Oc2ccnc3cc(-c4ccccc4)oc23)cc1 [Compound D24, N-[4-(2-Phenyl-furo[3,2-b]pyridin-7-yloxy)-phenyl]-propionamide] | – | 3 to 50 | – | – |
| C=CC(=O)NCc1ccc(-c2ccnc3cc(-c4ccccc4)oc23)cc1 [Compound D25, N-[4-(2-Phenyl-furo[3,2-b]pyridin-7-yl)-benzyl]-acrylamide] | – | 0.3 to 3 | – | – |
| Cc1cc2nccc(Oc3cccc(NC(=O)CCl)c3)c2o1 [Compound D27, 2-Chloro-N-[3-(2-methyl-furo[3,2-b]pyridin-7-yloxy)-phenyl]-acetamide] | – | < 0.3 | – | – |
| CCC(=O)Nc1cccc(Oc2ccnc3cc(C)oc23)c1 [Compound D28, N-[3-(2-Methyl-furo[3,2-b]pyridin-7-yloxy)-phenyl]-propionamide] | – | 3 to 50 | – | – |
| CCC(=O)Nc1cccc(-c2ccnc3cc(C)oc23)c1 [Compound D29, N-[3-(2-Methyl-furo[3,2-b]pyridin-7-yl)-phenyl]-propionamide] | – | 3 to 50 | – | – |
